Values belong to the molecule of their own block, whether it stands above or below them.
How the values were obtained:
[1] = system: MCF-7 breast cancer cell line; assay: Antiproliferation study, MTT cell viability assay; format: cell-based; conditions: Homo sapiens, MCF7, 72 h, antiproliferative activity, MTT, 72 h; read-out: IC50 (μM) MCF-7 cell line
In short: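 Cells seeded at 2.5×10^4 cells/ml and grown 24 h at 37 °C before compound treatment; vehicle 1% v/v ethanol. MTT at 1 mg/mL final for 2 h at 37 °C, then DMSO solubilisation and absorbance read. Viability expressed as % of untreated control, in triplicate, with compounds tested as free bases.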

[2] = system: HL-60(TB); assay: NCI60 cell line screen; conditions: Homo sapiens
[3] = system: RPMI-8226; assay: NCI60 cell line screen; conditions: Homo sapiens
[4] = system: A549/ATCC; assay: NCI60 cell line screen; conditions: Homo sapiens
[5] = system: EKVX; assay: NCI60 cell line screen; conditions: Homo sapiens
[6] = system: HOP-92; assay: NCI60 cell line screen; conditions: Homo sapiens
[7] = system: NCI-H226; assay: NCI60 cell line screen; conditions: Homo sapiens
[8] = system: NCI-H23; assay: NCI60 cell line screen; conditions: Homo sapiens
[9] = system: NCI-H460; assay: NCI60 cell line screen; conditions: Homo sapiens
[10] = system: NCI-H552; assay: NCI60 cell line screen
[11] = system: HCT-116; assay: NCI60 cell line screen; conditions: Homo sapiens
[12] = system: KM12; assay: NCI60 cell line screen; conditions: Homo sapiens
[13] = system: SW-620; assay: NCI60 cell line screen; conditions: Homo sapiens
[14] = system: SF-539; assay: NCI60 cell line screen; conditions: Homo sapiens
[15] = system: SNB-19; assay: NCI60 cell line screen; conditions: Homo sapiens
[16] = system: LOX IMVI; assay: NCI60 cell line screen; conditions: Homo sapiens
[17] = system: M14; assay: NCI60 cell line screen; conditions: Homo sapiens
[18] = system: SK-MEL-28; assay: NCI60 cell line screen; conditions: Homo sapiens
[19] = system: SK-MEL-5; assay: NCI60 cell line screen; conditions: Homo sapiens
[20] = system: IGROV1; assay: NCI60 cell line screen; conditions: Homo sapiens, IGROV-1
[21] = system: OVCAR-4; assay: NCI60 cell line screen; conditions: Homo sapiens
[22] = system: OVCAR-5; assay: NCI60 cell line screen; conditions: Homo sapiens
[23] = system: A498; assay: NCI60 cell line screen; conditions: Homo sapiens
[24] = system: ACHN; assay: NCI60 cell line screen; conditions: Homo sapiens
[25] = system: CAKI-1; assay: NCI60 cell line screen; conditions: Homo sapiens
[26] = system: RXF 393; assay: NCI60 cell line screen; conditions: Homo sapiens
[27] = system: SN12C; assay: NCI60 cell line screen; conditions: Homo sapiens
[28] = system: TK-10; assay: NCI60 cell line screen; conditions: Homo sapiens
[29] = system: UO-31; assay: NCI60 cell line screen; conditions: Homo sapiens
[30] = system: DU-145; assay: NCI60 cell line screen; conditions: Homo sapiens
[31] = system: MCF-7; assay: NCI60 cell line screen; conditions: Homo sapiens, MCF7
[32] = system: NCI/ADR-RES; assay: NCI60 cell line screen; conditions: Homo sapiens
[33] = system: MDA-MB-435; assay: NCI60 cell line screen; conditions: Homo sapiens
[34] = system: BT-549; assay: NCI60 cell line screen; conditions: Homo sapiens
[35] = system: T-47D; assay: NCI60 cell line screen; conditions: Homo sapiens, T47D
[36] = system: MDA-MB-468; assay: NCI60 cell line screen; conditions: Homo sapiens

SMILES: COc1ccc(C2C(c3ccccc3)C(=O)N2c2cc(OC)c(OC)c(OC)c2)cc1O (stereo not drawn) [Compound 4, 4-(3-Hydroxy-4-methoxyphenyl)-3-phenyl-1-(3,4,5-trimethoxyphenyl)-azetidin-2-one]
- IC50 [1]: 0.0096 µM
- melting point: 110 °C
- GI50 [2]: < 0.01 µM
- GI50 [3]: < 0.01 µM
- GI50 [4]: < 0.01 µM
- GI50 [5]: < 0.01 µM
- GI50 [6]: 5.15 µM
- GI50 [7]: < 0.01 µM
- GI50 [8]: < 0.01 µM
- GI50 [9]: < 0.01 µM
- GI50 [10]: 5.15 µM
- GI50 [11]: < 0.01 µM
- GI50 [12]: < 0.01 µM
- GI50 [13]: < 0.01 µM
- GI50 [14]: < 0.01 µM
- GI50 [15]: 0.025 µM
- GI50 [16]: < 0.01 µM
- GI50 [17]: < 0.01 µM
- GI50 [18]: < 0.01 µM
- GI50 [19]: < 0.01 µM
- GI50 [20]: < 0.01 µM
- GI50 [21]: 0.018 µM
- GI50 [22]: 0.038 µM
- GI50 [23]: < 0.01 µM
- GI50 [24]: < 0.01 µM
- GI50 [25]: < 0.01 µM
- GI50 [26]: < 0.01 µM
- GI50 [27]: < 0.01 µM
- GI50 [28]: < 0.01 µM
- GI50 [29]: 0.032 µM
- GI50 [30]: < 0.01 µM
- GI50 [31]: < 0.01 µM
- GI50 [32]: < 0.01 µM
- GI50 [33]: < 0.01 µM
- GI50 [34]: < 0.01 µM
- GI50 [35]: 31.2 µM
- GI50 [36]: < 0.01 µM

SMILES: COc1ccc(C2C(c3ccccc3)C(=O)N2c2cc(OC)c(OC)c(OC)c2)cc1 (stereo not drawn) [Compound 8, 4-(4-Methoxy-phenyl)-3-phenyl-1-(3,4,5-trimethoxy-phenyl)-azetidin-2-one]
- IC50 [1]: 0.034 µM
- melting point: 108 °C
- GI50 [2]: 0.0162 µM
- GI50 [3]: 0.0293 µM
- GI50 [4]: 0.238 µM
- GI50 [5]: 0.352 µM
- GI50 [6]: 22.7 µM
- GI50 [7]: 0.263 µM
- GI50 [8]: 0.427 µM
- GI50 [9]: 0.198 µM
- GI50 [10]: 0.0966 µM
- GI50 [11]: 0.0398 µM
- GI50 [12]: 0.0427 µM
- GI50 [13]: 0.0487 µM
- GI50 [14]: 0.033 µM
- GI50 [15]: 0.28 µM
- GI50 [16]: 0.0676 µM
- GI50 [17]: 0.132 µM
- GI50 [18]: 0.405 µM
- GI50 [19]: 0.124 µM
- GI50 [20]: 0.285 µM
- GI50 [21]: 0.0825 µM
- GI50 [22]: 0.668 µM
- GI50 [23]: 0.0375 µM
- GI50 [24]: 0.138 µM
- GI50 [25]: 0.0848 µM
- GI50 [26]: 0.0365 µM
- GI50 [27]: 0.312 µM
- GI50 [28]: 6.78 µM
- GI50 [29]: 0.396 µM
- GI50 [30]: 0.0569 µM
- GI50 [31]: 0.0351 µM
- GI50 [32]: 0.0425 µM
- GI50 [33]: 0.0239 µM
- GI50 [34]: 0.117 µM
- GI50 [35]: > 100 µM
- GI50 [36]: 0.0684 µM

- IC50 [1]: 0.064 µM
- melting point: 115 °C
SMILES: COc1ccc(C2C(c3cccs3)C(=O)N2c2cc(OC)c(OC)c(OC)c2)cc1 (stereo not drawn) [Compound 12, 4-(4-Methoxyphenyl)-3-thiophen-2-yl-1-(3,4,5-trimethoxyphenyl)-azetidin-2-one]
- GI50 [2]: < 0.01 µM
- GI50 [3]: < 0.01 µM
- GI50 [4]: 0.023 µM
- GI50 [5]: 0.034 µM
- GI50 [6]: 0.051 µM
- GI50 [7]: < 0.01 µM
- GI50 [8]: 0.036 µM
- GI50 [9]: 0.03 µM
- GI50 [10]: < 0.01 µM
- GI50 [11]: < 0.01 µM
- GI50 [12]: < 0.01 µM
- GI50 [13]: 0.01 µM
- GI50 [14]: < 0.01 µM
- GI50 [15]: 0.043 µM
- GI50 [16]: < 0.01 µM
- GI50 [17]: < 0.01 µM
- GI50 [18]: 0.01 µM
- GI50 [19]: 0.014 µM
- GI50 [20]: 0.02 µM
- GI50 [21]: 0.013 µM
- GI50 [22]: 0.051 µM
- GI50 [23]: < 0.01 µM
- GI50 [24]: < 0.01 µM
- GI50 [25]: 0.016 µM
- GI50 [26]: < 0.01 µM
- GI50 [27]: < 0.01 µM
- GI50 [28]: < 0.01 µM
- GI50 [29]: 0.038 µM
- GI50 [30]: < 0.01 µM
- GI50 [31]: < 0.01 µM
- GI50 [32]: < 0.01 µM
- GI50 [33]: < 0.01 µM
- GI50 [34]: < 0.01 µM
- GI50 [35]: > 1000 µM
- GI50 [36]: < 0.01 µM

From patent US20120309734A1, “COMBRETASTATIN DERIVATIVES AND USES THEREFOR” (priority 2009, published 2012)
